Data from patent publication US20230151373A1, “CHIMERIC POLYPEPTIDE FOR REGULATING IMMUNE CELLS” (STICHTING HET NEDERLANDS KANKER INSTITUUT-ANTONI VAN …, priority 2019, published 2023).
“Also recorded” adds a separate entry of the source.

Tests used:
[1] = test system: CD8 T cells modified with an NY-ESO-1 shared antigen specific TCR; experiment: Cytokine release and degranulation assay, NY-ESO-1 TCR T cells co-cultured with NY-ESO-1 peptide loaded T2 cells; format: cell-based, human; details: 10 μM asunaprevir
Method: (§1) For use as T cell targets, T2 and CBH 5477 cells were loaded with the indicated concentrations of HLA-A*02:01 restricted mutant CDK4 peptide (ALDPHSGHFV), HLA A*02:01 restricted NY-ESO-1 peptide (SLLMWITQA), or HLA-DR1 restricted CMV peptide (KYQEFFWDANDIYRI) in IMDM for 1 hour at 37° C. Cells were then washed once and used in co-culture experiments.
T cells and NK cells were pretreated with the indicated concentrations of asunaprevir (MedChemExpress, #HY-14434), grazoprevir (MedChemExpress, #HY-15298), dTAG-13 (Tocris, #6605) or DMSO control in T cell media (RPMI/10% human serum/penicillin-streptomycin, 100 IU/ml IL2 and 5 ng/ml IL15) or NK cell media (RPMI/8% FCS/penicillin-streptomycin, 500 IU/ml IL2), respectively, for 24 hours before co-culture experiments. […]
(§2) Following permeabilization, cells were washed twice with BD perm/wash buffer (#51-2091KZ) and stained with anti-IFNγ-BV421 (1:100 dilution, BD, #564791), anti-IL-2-PE-Cy7 (1:100 dilution, BD, #560707) and anti-TNFα-BV650 (1:100 dilution, Biolegend, #502938) diluted in perm/wash buffer for 20 min at 4° C. Cells were then washed twice, resuspended in 100 μl FACS buffer and analyzed directly on a Fortessa Special Order analyzer. Data were analyzed using FlowJo and Prism 7 software.

[2] = test system: anti-CD19-CD28-CD3ζ chain CAR modified human T cells; experiment: Cytokine release and degranulation assay, anti-CD19-CD28-CD3ζ CAR T cells co-cultured with Raji or Daudi; format: cell-based; details: co-culture with CD19 positive Raji or Daudi; 10 μM asunaprevir
Method: (§3) T cells and NK cells were pretreated with the indicated concentrations of asunaprevir (MedChemExpress, #HY-14434), grazoprevir (MedChemExpress, #HY-15298), dTAG-13 (Tocris, #6605) or DMSO control in T cell media (RPMI/10% human serum/penicillin-streptomycin, 100 IU/ml IL2 and 5 ng/ml IL15) or NK cell media (RPMI/8% FCS/penicillin-streptomycin, 500 IU/ml IL2), respectively, for 24 hours before co-culture experiments. 100,000 T cells or NK cells and 100,000 of indicated tumor cells were mixed in T cell or NK cell media supplemented with golgi-plug (1:1000 dilution, BD, #51-2301KZ) and anti-LAMP1-APC (1:100 dilution, Biolegend, #328620) in the presence of indicated drugs or DMSO control in 96-well plates and incubated for 5 hours at 37° C.
(§4) After incubation, cells were washed once with PBS and stained with IR dye (Invitrogen, #L34976) at 1:400 dilution for 5 minutes at 4° C. […]
as §2

[3] = test system: primary human T cells modified with the HLA class I restricted CDK4 TCR; experiment: Cytokine release and degranulation assay, CDK4 TCR T cells co-cultured with CDK4 peptide loaded T2 cells; format: cell-based
Method: as §1, §3
(§5) After incubation, cells were washed once with PBS and stained with IR dye (Invitrogen, #L34976) at 1:400 dilution for 5 minutes at 4° C. Subsequently, cells were washed once with FACS buffer (PBS plus 0.5% BSA) and stained with anti-CD8-PerCP Cy5.5 (1:20 dilution, BD, #341050), anti-CD4 BV711 (1:50 dilution, Biolegend, #317440), anti-murine constant TCR-PE (in experiments with transduced TCRs, 1:200 dilution, BD, #553172) or cetuximab-PE (in experiments with transduced CAR construct containing truncated human EGFR reporter, 1:200 dilution, R&D Systems, #FAB9577P) for 20 minutes at 4° C. Cells were then washed once with FACS buffer and fixed with BD fixation and permeabilization solution (#51-2090KZ) for 20 minutes at 4° C.
as §2

NK cell line KHYG-1 = experiment: Cytokine release assay, KHYG-1 NK cells co-cultured with K562 tumor; format: cell-based, human; details: Zap70-PD1-FKBP12^F36V switch; 0.5 μM dTAG-13
Method: Human NK cell line KHYG-1 (DSMZ, Leibniz, Germany) was cultured in RPMI supplemented with 8% FBS and penicillin-streptomycin (100 IU/ml penicillin, 100 μg/ml streptomycin) containing 500 IU/ml IL-2 (Novartis). All cell lines were tested for mycoplasma using PCR based screening (Young et al, Nat Protoc. 2010 May; 5(5):929-34) and found negative.
24-well non treated cell culture plates were covered with 10 μg/ml retronectin (Takara, #T100B) overnight at 4° C. The next day, the retronectin solution was removed and wells were blocked with 2% BSA (Sigma-Aldrich, A9418-500g) in PBS for 30 minutes. […]
as §2

[4] = test system: primary human T cells modified with the CDK4 TCR; experiment: Cytokine release and degranulation assay, CDK4 TCR T cells with SMASh or FKBP12^F36V switch co-cultured with NKIRTIL006 tumor cells; format: cell-based
Method: as §3, §4, §2

NKIRTIL006 tumor cells = experiment: 51Cr release cytotoxicity assay; format: cell-based, human; details: 0.5 μM dTAG-13 vs DMSO
Method: Culture media of Zap70-PD1-FKBP^F36V expressing cells is supplemented with 0.5 μM dTAG-13 PROTAC starting one day before cell sorting until 4 days before ^51Cr assay. Primary human T cells modified with the CDK4 TCR plus either the Zap70-PD1-FKBP^F36V switch or IRES-EGFP vector control were sorted on a Beckman Coulter Moflo Astrios using an 80 μM nozzle. Cells were cultured in standard T cell culturing conditions in RPMI/10 human serum/penicillin-streptomycin 100 IU/ml IL-2 and 5 ng/ml IL-15 for 7 days.
After this, cells were expanded using a rapid expansion protocol (REP). […] At day 6, culture media is refreshed with 3000 IU/ml IL-2 containing media and cultures were split into 2 every 3 days with media containing IL-2 (3000 IU/ml final concentration). At day 12, cells were switched to standard T cell culturing conditions (RPMI/10% human serum/penicillin-streptomycin/100 IU/ml IL-2 and 5 ng/ml IL-15) for 3 days, until use in ^51Cr assays.
One day prior to ^51Cr assay, T cells were pretreated with 0.5 μM dTAG-13 PROTAC or DMSO in standard T cell culturing conditions in RPMI/10% human serum/penicillin-streptomycin/100 IU/ml IL-2 and 5 ng/ml IL-15. 5×10^5 tumor cells were resuspended in 100 μl media, mixed gently with 100 ρCi ^51Cr and then incubated at 37° C. for 45 minutes. […]

[5] = test system: primary human T cells modified with the CDK4 TCR and Zap70-PD1-zinc finger degrons; experiment: IMiD regulation of zinc finger degron CRASH-IT switches, CDK4 TCR T cells co-cultured with NKIRTIL006 tumor cells; format: cell-based; details: for restoration of activity levels (cytokine production, cell surface LAMP-1) by IMiD: IKZF1-based CRASH-IT switch (IKZF1 ZF2-ZF3 degron)
Description: Constructs containing various zinc finger degrons in MP71 Zap70-PD1-Zinc finger IRES-EGFP format were created using IKZF1 ZF2-3 degron containing sequence (Q13422, 141-197 aa), or IKZF3 ZF2-3 degron containing sequence (Q9UKT9, 142-198 aa), or ZFP91 ZF4-5 degron containing sequence (Q96JP5, 396-455 aa), ZNF276 ZF4-5 degron containing sequence (Q8N554, 520-579 aa), ZNF653 ZF4-5 degron containing sequence (Q96CK0, 552-611 aa), or ZNF692 ZF4-5 degron containing sequence (Q9BU19, 413-473 aa). For CRASH-IT switches encoding hybrid zinc finger degrons, the IKZF1 ZF2 beta turn sequence (FQCNQCGASFT) was replaced with beta turn sequences from ZNF653 ZF4 (LQCEICGYQCR), ZFP91 ZF4 (LQCEICGFTCR), ZNF276 ZF4 (LQCEVCGFQCR), or ZNF827 ZF1 (FQCPICGLVIK). For the CRASH-IT switch encoding ZFP91/IKZF1 hybrid zinc finger without IKZF1 ZF3 (single ZF), the IKZF1 ZF3 containing sequence (Q13422, 170-197 aa) was deleted from the Zap70-PD1-ZFP91/IKZF1 hybrid zinc finger (double ZF) construct.
as §3
as §5, with “Cells were then washed once with FACS buffer and fixed with BD fixation and permeabilization solution (#51-2090KZ) for 20 minutes at 4° C.” left out
as §2

[6] = Zap70-PD1-SMASh T cells, 10 μM asunaprevir relative to DMSO-treated cells, peptide-loaded target cells (10 nM)

C=C[C@@H]1C[C@]1(NC(=O)[C@@H]1C[C@@H](Oc2ncc(OC)c3ccc(Cl)cc23)CN1C(=O)[C@@H](NC(=O)OC(C)(C)C)C(C)(C)C)C(=O)NS(=O)(=O)C1CC1 [asunaprevir]
functional activity of NY-ESO-1 TCR CD8 T cells with CRASH-IT switch upon drug addition [1]: restored
T cell functions of CAR T cells with Zap70-PD1-SMASh upon drug addition [2]: recovered
boost of CD8+ T cell activation, IFNγ [3, 6]: 8.8 fold
boost of CD8+ T cell activation, IL2 [3, 6]: 11.5 fold
boost of CD8+ T cell activation, TNFα [3, 6]: 6.3 fold
boost of CD8+ T cell activation, cell surface LAMP1 expression [3, 6]: 6.6 fold
drug effect on inhibition of T cell function by Zap70-PD1-SMASh ([3]; primary human CD8 and CD4 T cells with Zap70-PD1-SMASh): reverted; also recorded: dose dependent recovery
effector functions of Zap70-PD1-SMASh fusion protein-negative T cells (vector control) ([3]; vector control T cells, protease inhibitor): unaltered

CC[C@H](C(=O)N1CCCC[C@H]1C(=O)O[C@H](CCc1ccc(OC)c(OC)c1)c1ccccc1OCC(=O)NCCCCCCOc1cccc2c1C(=O)N(C1CCC(=O)NC1=O)C2=O)c1cc(OC)c(OC)c(OC)c1 (some centres unmarked) [dTAG-13]
suppression of NK cell cytokine production in the presence of drug (NK cell line KHYG-1): reversed
reactivation of T cell function at high drug concentrations ([4]; FKBP12^F36V/dTAG-13 based switches, high drug concentrations): suboptimal reactivation of T cell function
concentration at which activation of CRASH-IT platform peaks ([4]; small-molecule titration, Zap70-PD1-FKBP12^F36V (dTAG-13) or Zap70-PD1-SMASh (HCV NS3/4A inhibitors)): around 0.5 μM
cytotoxic activity of control vector-modified T cells (NKIRTIL006 tumor cells): unaltered
killing of 51Cr loaded NKIRTIL006 tumor cells by sorted CD8 cells with Zap70-PD1-FKBP12^F36V (NKIRTIL006 tumor cells): increased killing

Nc1cccc2c1CN(C1CCC(=O)NC1=O)C2=O (centres unmarked) [lenalidomide]
restoration of activity levels (cytokine production, cell surface LAMP-1) by IMiD [5]: robustly restored

O=C1CCC(N2C(=O)c3ccccc3C2=O)C(=O)N1 (centres unmarked) [thalidomide]
restoration of activity levels (cytokine production, cell surface LAMP-1) by IMiD [5]: lesser
reduction of thalidomide concentration required for the same level of cytokine production (IFNγ, IL-2, or TNFα) or surface LAMP-1 expression ([5]; T cells expressing the chimeric degrons as compared to the parental IKZF1 ZF2-3 degron): around 1,000 fold

Nc1cccc2c1C(=O)N(C1CCC(=O)NC1=O)C2=O (centres unmarked) [pomalidomide]
restoration of activity levels (cytokine production, cell surface LAMP-1) by IMiD [5]: robustly restored
